Test results published in PMC3324464, “The GPI Anchor Signal Sequence Dictates the Folding and Functionality of the Als5 Adhesin from Candida albicans” (PLoS ONE, 2012).
Like-named read-outs stand apart in the source and are kept apart here. Ends that are not written are not given here.

Legend:
GST-Als5-SS = target: T1, GST-Als5-SS (Candida albicans, UniProt Q5A8T7); experiment: biochemical; type: binding
T1 construct: made in house; host or cells: E. coli BL21(DE3)
Protocol: (§1) Binding of GST-Als5 and GST-Als5-SS proteins to different peptides was monitored by fluorescence emission spectroscopy. Freshly purified samples of protein were used each time. 0.02 mg/ml of the proteins were taken and the tryptophan-specific emission spectra were monitored between 310 nm to 400 nm by excitation at 295 nm. The peptides were titrated into the protein solutions, incubated for 5 minutes after each addition, and emission spectra recorded. Both excitation and emission bandwidths were fixed at 5 nm and all spectra were averages of 5 scans. All spectra were corrected for buffer and peptide backgrounds.
(§2) All binding data were analyzed using a one-site saturation model. Binding studies were done at different temperatures, and ΔG^o for the protein-peptide interactions calculated using the equation: ΔG^o = –RTlnKa. ΔH^o and ΔS^o were obtained from the slope and intercept of the van’t Hoff plots according to the equation: [drawing 1]
The change in fluorescence emission intensity upon titration with the peptide ligands was monitored (see Figures S8A, S8C, S8E, S8G and Figures S9A, S9C, S9E, S9G, respectively) and the binding plots obtained (Figures S8B, S8D, S8F, S8H and Figures S9B, S9D, S9F, S9H, respectively) were used to calculate dissociation constants (Kd) for the interaction (Table 1). […]

GST-Als5 = target: T2, GST-Als5 (Candida albicans, UniProt Q5A8T7); experiment: biochemical; type: binding; conditions: for Kd: 0.02 mg/ml protein, excitation 295 nm, one-site saturation model
T2 construct: made in house; host or cells: E. coli BL21(DE3)
Protocol: as §1, §2
The change in fluorescence emission intensity upon titration with the peptide ligands was monitored (see Figures S8A, S8C, S8E, S8G and Figures S9A, S9C, S9E, S9G, respectively) and the binding plots obtained (Figures S8B, S8D, S8F, S8H and Figures S9B, S9D, S9F, S9H, respectively) were used to calculate dissociation constants (Kd) for the interaction (Table 1).
Supplementary file pone.0035305.s008.tif: Figure S8 Binding of GST-Als5 with different peptides. A, C, E and G show representative fluorescence spectra obtained upon binding of GST-Als5 with the peptide EHAHTPR at 15 °C, 27 °C, 37 °C and 47 °C, respectively. B, D, F and H represent the binding plots of GST-Als5 with different peptides at 15 °C, 27 °C, 37 °C and 47 °C, respectively. Each data point gives the average of three independent measurements done in duplicates and the error bars denote standard deviations. Spectra 1–7 represent binding of peptides with GST-Als5 in the following order of increasing concentrations of the peptides: 1: no peptide; 2: 0.037 µM; 3: 0.074 µM; 4: 0.443 µM; 5: 0.804 µM; 6: 1.154 µM; 7: 1.5 µM. (TIF) Click here for additional data file.

[1] = 15 °C, N.B. = no binding observed, 0.02 mg/ml protein, excitation 295 nm, emission 310-400 nm, one-site saturation model, average of three independent measurements in duplicates
[2] = Kd, 27 °C, N.B. = no binding observed, 0.02 mg/ml protein, excitation 295 nm, one-site saturation model, average of three independent measurements in duplicates
[3] = Kd, 37 °C, 0.02 mg/ml protein, excitation 295 nm, one-site saturation model, average of three independent measurements in duplicates
[4] = Kd, 47 °C, N.B. = no binding observed, 0.02 mg/ml protein, excitation 295 nm, one-site saturation model, average of three independent measurements in duplicates
[5] = 15 °C, N.B. = no binding observed, emission 310-400 nm, average of three independent measurements in duplicates
[6] = 27 °C, N.B. = no binding observed, average of three independent measurements in duplicates
[7] = Kd, 37 °C, average of three independent measurements in duplicates
[8] = Kd, 47 °C, N.B. = no binding observed, average of three independent measurements in duplicates

T1 sequence (Q5A8T7 whole entry): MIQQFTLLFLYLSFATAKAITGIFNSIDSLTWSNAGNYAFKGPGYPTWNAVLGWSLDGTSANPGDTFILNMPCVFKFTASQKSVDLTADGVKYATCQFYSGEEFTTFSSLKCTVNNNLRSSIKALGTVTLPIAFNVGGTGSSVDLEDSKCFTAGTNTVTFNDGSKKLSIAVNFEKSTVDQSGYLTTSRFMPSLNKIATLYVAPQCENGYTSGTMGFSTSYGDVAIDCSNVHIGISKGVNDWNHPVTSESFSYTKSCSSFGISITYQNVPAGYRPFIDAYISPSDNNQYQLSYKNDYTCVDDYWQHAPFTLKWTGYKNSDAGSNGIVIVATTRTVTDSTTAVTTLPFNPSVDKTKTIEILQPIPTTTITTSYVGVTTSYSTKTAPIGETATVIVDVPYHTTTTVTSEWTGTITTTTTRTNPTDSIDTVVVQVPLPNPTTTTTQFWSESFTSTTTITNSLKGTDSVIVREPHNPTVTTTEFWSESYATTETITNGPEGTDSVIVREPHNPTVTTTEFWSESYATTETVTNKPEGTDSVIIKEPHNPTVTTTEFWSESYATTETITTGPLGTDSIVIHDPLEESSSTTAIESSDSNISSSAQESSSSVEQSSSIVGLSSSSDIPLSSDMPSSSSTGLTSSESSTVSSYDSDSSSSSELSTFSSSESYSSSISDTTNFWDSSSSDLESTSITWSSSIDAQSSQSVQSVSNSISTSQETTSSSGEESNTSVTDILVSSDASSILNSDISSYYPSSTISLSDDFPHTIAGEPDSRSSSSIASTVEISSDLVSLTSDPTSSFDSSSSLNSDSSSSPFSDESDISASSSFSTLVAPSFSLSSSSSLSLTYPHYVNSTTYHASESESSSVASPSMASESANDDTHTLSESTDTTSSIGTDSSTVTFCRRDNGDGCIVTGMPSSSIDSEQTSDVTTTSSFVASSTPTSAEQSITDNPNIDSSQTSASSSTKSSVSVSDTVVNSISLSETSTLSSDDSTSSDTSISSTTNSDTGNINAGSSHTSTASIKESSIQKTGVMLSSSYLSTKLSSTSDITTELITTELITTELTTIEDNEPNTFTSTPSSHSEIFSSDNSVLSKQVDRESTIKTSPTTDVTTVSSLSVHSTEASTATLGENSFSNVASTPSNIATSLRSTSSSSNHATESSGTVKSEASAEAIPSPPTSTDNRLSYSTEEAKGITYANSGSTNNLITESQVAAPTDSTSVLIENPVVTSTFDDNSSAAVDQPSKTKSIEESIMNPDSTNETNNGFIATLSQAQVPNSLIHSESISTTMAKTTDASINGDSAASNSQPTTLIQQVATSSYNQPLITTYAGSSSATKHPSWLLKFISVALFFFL
T2 sequence (Q5A8T7 1-1327): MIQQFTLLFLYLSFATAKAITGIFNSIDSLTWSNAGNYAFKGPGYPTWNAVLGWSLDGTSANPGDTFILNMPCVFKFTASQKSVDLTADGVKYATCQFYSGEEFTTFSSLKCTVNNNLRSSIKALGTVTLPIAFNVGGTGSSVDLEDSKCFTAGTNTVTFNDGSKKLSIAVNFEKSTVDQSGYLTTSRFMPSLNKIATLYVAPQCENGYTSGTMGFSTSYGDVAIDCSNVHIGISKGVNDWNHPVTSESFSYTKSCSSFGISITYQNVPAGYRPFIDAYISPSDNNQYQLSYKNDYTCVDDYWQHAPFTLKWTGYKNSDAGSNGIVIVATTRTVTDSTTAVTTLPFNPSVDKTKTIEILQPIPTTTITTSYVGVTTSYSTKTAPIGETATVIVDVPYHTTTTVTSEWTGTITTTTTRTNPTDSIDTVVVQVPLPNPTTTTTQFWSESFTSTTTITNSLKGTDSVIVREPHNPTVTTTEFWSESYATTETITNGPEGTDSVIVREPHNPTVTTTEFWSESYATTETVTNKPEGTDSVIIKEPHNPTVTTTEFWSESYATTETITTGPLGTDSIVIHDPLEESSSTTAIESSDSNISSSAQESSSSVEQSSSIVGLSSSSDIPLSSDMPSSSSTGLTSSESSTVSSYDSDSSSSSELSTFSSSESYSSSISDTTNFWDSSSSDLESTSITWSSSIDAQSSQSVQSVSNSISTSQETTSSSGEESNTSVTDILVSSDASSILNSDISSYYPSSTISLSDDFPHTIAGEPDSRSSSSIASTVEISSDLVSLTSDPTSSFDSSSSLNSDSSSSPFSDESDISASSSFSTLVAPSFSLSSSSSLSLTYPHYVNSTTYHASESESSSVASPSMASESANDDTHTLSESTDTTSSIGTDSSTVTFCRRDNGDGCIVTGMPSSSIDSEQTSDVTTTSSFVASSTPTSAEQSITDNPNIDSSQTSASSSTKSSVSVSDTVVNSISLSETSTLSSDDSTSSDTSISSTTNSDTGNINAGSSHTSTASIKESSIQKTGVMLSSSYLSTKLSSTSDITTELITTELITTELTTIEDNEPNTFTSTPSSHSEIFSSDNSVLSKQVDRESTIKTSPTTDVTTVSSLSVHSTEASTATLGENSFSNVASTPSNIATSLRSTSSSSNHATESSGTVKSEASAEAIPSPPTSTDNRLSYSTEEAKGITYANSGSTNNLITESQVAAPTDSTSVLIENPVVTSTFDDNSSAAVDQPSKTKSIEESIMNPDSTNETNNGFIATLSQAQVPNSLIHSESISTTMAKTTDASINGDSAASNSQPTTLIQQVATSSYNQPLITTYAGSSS

AYKSLMT [AYKSLMT] was tested, and the Kd (GST-Als5-SS; [1]) was “N.B”, the Kd (GST-Als5-SS; [2]) was 77 ± 2 nM and the Kd (GST-Als5-SS; [3]) was 6 ± 0.2 nM. For the same substance, the Kd (GST-Als5-SS; [4]) was 9 ± 2 nM, the Kd (GST-Als5; [5]) was “N.B” and the Kd (GST-Als5; [6]) was “N.B”. The Kd (GST-Als5; [7]) was 13 ± 7 nM, the Kd (GST-Als5; Kd, 42 °C) was 9 ± 4 nM and the Kd (GST-Als5; [8]) was 13 ± 6 nM.
For EHAHTPR [EHAHTPR], the Kd (GST-Als5-SS) was 65 ± 13 nM, the Kd (GST-Als5-SS; [2]) was 82 ± 16 nM and the Kd (GST-Als5-SS; [3]) was 44 ± 4 nM. The Kd (GST-Als5-SS; [4]) was 25 ± 9 nM, the Kd (GST-Als5; [5]) was “N.B” and the Kd (GST-Als5; [6]) was “N.B”. The Kd (GST-Als5; [7]) was 160 ± 38 nM, the Kd (GST-Als5; Kd, 42 °C) was 34 ± 8 nM and the Kd (GST-Als5; [8]) was 34 ± 11 nM.
With VSPIRLK [scrambled peptide] the “binding (in words)” value (GST-Als5-SS; 27 °C and 47 °C) was “showed no affinity for either of the protein variants”, the Kd (GST-Als5-SS; 27 °C, N.B. = no binding observed, 0.02 mg/ml protein, excitation 295 nm, one-site saturation model, average of three independent measurements in duplicates) was “N.B” and the Kd (GST-Als5-SS; 47 °C, N.B. = no binding observed, 0.02 mg/ml protein, excitation 295 nm, one-site saturation model, average of three independent measurements in duplicates) was “N.B”. For the same substance, the “binding (in words)” value (GST-Als5; 27 °C and 47 °C) was “showed no affinity for either of the protein variants”, the Kd (GST-Als5; [6]) was “N.B” and the Kd (GST-Als5; 47 °C, N.B. = no binding observed, average of three independent measurements in duplicates) was “N.B”.
With KLRIPSV [KLRIPSV] the Kd (GST-Als5-SS; [1]) was “N.B”, the Kd (GST-Als5-SS; [2]) was 53 ± 6 nM and the Kd (GST-Als5-SS; [3]) was 17 ± 5 nM. For the same substance, the Kd (GST-Als5-SS; [4]) was 14 ± 2 nM, the Kd (GST-Als5; [5]) was “N.B” and the Kd (GST-Als5; [6]) was “N.B”. It also gave a Kd (GST-Als5; [7]) of 34 ± 12 nM, a Kd (GST-Als5; [8]) of 7 ± 3 nM and a Kd (GST-Als5; Kd, 52 °C (secondary structure of protein mildly perturbed)) of 7 ± 2 nM.
